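Compound exposure: 48 hours, 5 concentrations, 96-well plates. At the GI50, growth is halved.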 Calls of active or inactive are those of the source. No stated cut-off is given here; in the data, active = GI50 up to about 1.1 µM and inactive = higher.
Assays:
Assay in all cases: inhibition of tumour cell growth, NCI panel, 48 h
K562 = tested on: K562
RXF 393 = tested on: RXF 393
Malme-3M = tested on: Malme-3M
UO-31 = tested on: UO-31
Hs-578T = tested on: Hs-578T
OVCAR-3 = tested on: OVCAR-3
MDA-MB-435 = tested on: MDA-MB-435
IGROV-1 = tested on: IGROV-1
MDA-MB-231 = tested on: MDA-MB-231
DU-145 = tested on: DU-145
EKVX = tested on: EKVX
786-0 = tested on: 786-0
LOX IMVI = tested on: LOX IMVI
ACHN = tested on: ACHN
SK-MEL-2 = tested on: SK-MEL-2
MOLT-4 = tested on: MOLT-4
CAKI-1 = tested on: CAKI-1
CCRF-CEM = tested on: CCRF-CEM
U-251 = tested on: U-251
PC-3 = tested on: PC-3
HT-29 = tested on: HT-29
HCT-15 = tested on: HCT-15
SK-MEL-28 = tested on: SK-MEL-28
NCI-H226 = tested on: NCI-H226
A498 = tested on: A498
SF-268 = tested on: SF-268
SF-295 = tested on: SF-295
HCT-116 = tested on: HCT-116
NCI/ADR-RES = tested on: NCI/ADR-RES
MDA-N = tested on: MDA-N
MCF7 = tested on: MCF7
NCI-H23 = tested on: NCI-H23
SF-539 = tested on: SF-539
BT-549 = tested on: BT-549
UACC-62 = tested on: UACC-62
OVCAR-5 = tested on: OVCAR-5
SK-MEL-5 = tested on: SK-MEL-5
KM12 = tested on: KM12
SK-OV-3 = tested on: SK-OV-3
M14 = tested on: M14
UACC-257 = tested on: UACC-257
TK-10 = tested on: TK-10
HL-60 = tested on: HL-60
OVCAR-8 = tested on: OVCAR-8
SN12C = tested on: SN12C
SW-620 = tested on: SW-620
RPMI-8226 = tested on: RPMI-8226
HOP-62 = tested on: HOP-62
T47D = tested on: T47D
SNB-75 = tested on: SNB-75
COLO 205 = tested on: COLO 205
SNB-19 = tested on: SNB-19
NCI-H460 = tested on: NCI-H460
OVCAR-4 = tested on: OVCAR-4
NCI-H522 = tested on: NCI-H522
A549 = tested on: A549
HCC 2998 = tested on: HCC 2998

CC(C)CCCC(=O)CCCCCCC(=O)CCN(O)C(=O)C(N)CO (configuration not stated)
GI50 (K562): 28.3 µM (inactive)
GI50 (RXF 393): 11 µM (inactive)
GI50 (Malme-3M): 13.7 µM (inactive)
GI50 (UO-31): 12.2 µM (inactive)
GI50 (Hs-578T): 28.5 µM (inactive)
GI50 (OVCAR-3): 17.3 µM (inactive)
GI50 (MDA-MB-435): 25.8 µM (inactive)
GI50 (IGROV-1): 13.5 µM (inactive)
GI50 (MDA-MB-231): 16.2 µM (inactive)
GI50 (DU-145): 18.3 µM (inactive)
GI50 (EKVX): 10.6 µM (inactive)
GI50 (786-0): 16 µM (inactive)
GI50 (LOX IMVI): 12.2 µM (inactive)
GI50 (ACHN): 16.1 µM (inactive)
GI50 (SK-MEL-2): 17.1 µM (inactive)
GI50 (MOLT-4): 41.7 µM (inactive)
GI50 (CAKI-1): 16 µM (inactive)
GI50 (CCRF-CEM): 4.62 µM (inactive)
GI50 (U-251): 21.8 µM (inactive)
GI50 (PC-3): 12.6 µM (inactive)
GI50 (HT-29): 18.7 µM (inactive)
GI50 (HCT-15): 15.3 µM
GI50 (SK-MEL-28): 19.1 µM (inactive)
GI50 (NCI-H226): 14 µM (inactive)
GI50 (A498): 16.3 µM (inactive)
GI50 (SF-268): 26.2 µM (inactive)
GI50 (SF-295): 18.3 µM (inactive)
GI50 (HCT-116): 17.7 µM (inactive)
GI50 (NCI/ADR-RES): 16.1 µM (inactive)
GI50 (MDA-N): 21.8 µM (inactive)
GI50 (MCF7): 19.8 µM (inactive)
GI50 (NCI-H23): 15.1 µM (inactive)
GI50 (SF-539): 16 µM (inactive)
GI50 (BT-549): 14.7 µM (inactive)
GI50 (UACC-62): 16.7 µM (inactive)
GI50 (OVCAR-5): 19.8 µM (inactive)
GI50 (SK-MEL-5): 17.5 µM (inactive)
GI50 (KM12): 17.6 µM (inactive)
GI50 (SK-OV-3): 19.1 µM (inactive)
GI50 (M14): 20.2 µM (inactive)
GI50 (UACC-257): 17.3 µM (inactive)
GI50 (TK-10): 14.7 µM (inactive)
GI50 (HL-60): 20 µM (inactive)
GI50 (OVCAR-8): 16.9 µM (inactive)
GI50 (SN12C): 16.9 µM (inactive)
GI50 (SW-620): 30.3 µM (inactive)
GI50 (RPMI-8226): 21.7 µM (inactive)
GI50 (HOP-62): 21.2 µM (inactive)
GI50 (T47D): 13.8 µM (inactive)
GI50 (SNB-75): 10.8 µM (inactive)
GI50 (COLO 205): 23.7 µM (inactive)
GI50 (SNB-19): 22.5 µM (inactive)

Cc1[nH]c2ncn3nc(C(Cl)(Cl)Cl)nc3c2c1Cc1ccccc1
GI50 (RXF 393): > 100 µM (inactive)
GI50 (Malme-3M): > 100 µM (inactive)
GI50 (UO-31): 10.5 µM (inactive)
GI50 (NCI-H460): > 100 µM (inactive)
GI50 (Hs-578T): > 100 µM (inactive)
GI50 (OVCAR-3): > 100 µM (inactive)
GI50 (MDA-MB-435): > 100 µM (inactive)
GI50 (IGROV-1): > 100 µM (inactive)
GI50 (MDA-MB-231): > 100 µM (inactive)
GI50 (DU-145): > 100 µM (inactive)
GI50 (EKVX): > 100 µM (inactive)
GI50 (786-0): > 100 µM (inactive)
GI50 (ACHN): > 100 µM (inactive)
GI50 (SK-MEL-2): > 100 µM (inactive)
GI50 (MOLT-4): > 100 µM (inactive)
GI50 (CAKI-1): > 100 µM (inactive)
GI50 (CCRF-CEM): > 100 µM (inactive)
GI50 (U-251): > 100 µM (inactive)
GI50 (PC-3): > 100 µM (inactive)
GI50 (HT-29): > 100 µM (inactive)
GI50 (HCT-15): > 100 µM
GI50 (SK-MEL-28): > 100 µM (inactive)
GI50 (NCI-H226): > 100 µM (inactive)
GI50 (A498): > 100 µM (inactive)
GI50 (SF-268): > 100 µM (inactive)
GI50 (SF-295): > 100 µM (inactive)
GI50 (HCT-116): > 100 µM (inactive)
GI50 (NCI/ADR-RES): > 100 µM (inactive)
GI50 (MDA-N): > 100 µM (inactive)
GI50 (MCF7): > 100 µM (inactive)
GI50 (NCI-H23): > 100 µM (inactive)
GI50 (SF-539): > 100 µM (inactive)
GI50 (BT-549): > 100 µM (inactive)
GI50 (OVCAR-4): > 100 µM (inactive)
GI50 (UACC-62): > 100 µM (inactive)
GI50 (OVCAR-5): > 100 µM (inactive)
GI50 (SK-MEL-5): > 100 µM (inactive)
GI50 (KM12): > 100 µM (inactive)
GI50 (SK-OV-3): > 100 µM (inactive)
GI50 (M14): > 100 µM (inactive)
GI50 (UACC-257): > 100 µM (inactive)
GI50 (TK-10): > 100 µM (inactive)
GI50 (HL-60): > 100 µM (inactive)
GI50 (OVCAR-8): > 100 µM (inactive)
GI50 (SN12C): > 100 µM (inactive)
GI50 (SW-620): > 100 µM (inactive)
GI50 (RPMI-8226): > 100 µM (inactive)
GI50 (HOP-62): > 100 µM (inactive)
GI50 (NCI-H522): > 100 µM (inactive)
GI50 (T47D): > 100 µM (inactive)
GI50 (SNB-75): > 100 µM (inactive)
GI50 (A549): > 100 µM (inactive)
GI50 (HCC 2998): > 100 µM (inactive)
GI50 (COLO 205): > 100 µM (inactive)
GI50 (SNB-19): > 100 µM (inactive)

From ChEMBL document CHEMBL1201862, “PubChem BioAssay data set” (2004)
